Test results: PMC9250534, “Synthesis and direct assay of large macrocycle diversities by combinatorial late-stage modification at picomole scale” (Nature Communications, 2022)
Numbered stars: 1 amine (or outer) side, 2 acyl side, 3 side chain; on linkers, the order of the positions; unused ones are H or OH. Bridge positions count the residues as written; N and C are the ends. Square brackets hold non-standard residues; d marks the D form. Peptide text beside a SMILES is read from it. * marks the point of attachment. 2Thenoyl(5-Cl) = O=C(c1ccc(Cl)s1)*; Benzoyl(4-Cl) = O=C(c1ccc(Cl)cc1)*; Cysteamide = C(CS[*:3])N[*:1]; X1 = O=C(/C=C/c1ccccc1)*; Api = NC1(C(=O)O)CCNCC1; Dap = NC[CH](N)C(=O)O; Mpa = O=C(O)CCS

Biological target: MDM2 (Homo sapiens, UniProt Q00987)
Experiment: MDM2 binding screen: displacement of fluorescent p53 peptide probe FP53 (fluorescence polarization)
Details: crude macrocycle reactions; for fraction fluorescent probe displaced, Screen: initial screen
In short: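 Macrocycle reaction products at a final 10 µM were tested for displacement of a p53-based fluorescent peptide from human MDM2. Fluorescence anisotropy (ex 485/em 535 nm) was read once per macrocycle at 25 °C.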

Chain of MDM2 (Q00987 whole entry): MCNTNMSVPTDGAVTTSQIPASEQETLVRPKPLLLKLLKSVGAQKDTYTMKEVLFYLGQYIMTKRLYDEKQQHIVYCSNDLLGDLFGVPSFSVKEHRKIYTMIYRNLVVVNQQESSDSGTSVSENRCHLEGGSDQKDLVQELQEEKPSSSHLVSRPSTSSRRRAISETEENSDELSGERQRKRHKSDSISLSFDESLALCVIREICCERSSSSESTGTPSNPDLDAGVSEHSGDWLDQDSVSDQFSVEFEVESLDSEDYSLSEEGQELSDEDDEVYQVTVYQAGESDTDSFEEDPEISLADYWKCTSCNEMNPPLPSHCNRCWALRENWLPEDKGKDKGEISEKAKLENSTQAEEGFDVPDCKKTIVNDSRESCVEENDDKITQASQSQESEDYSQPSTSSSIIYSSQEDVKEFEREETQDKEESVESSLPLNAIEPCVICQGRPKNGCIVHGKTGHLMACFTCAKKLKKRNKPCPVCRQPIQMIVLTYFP

Row | Structure (SMILES) | fraction fluorescent probe displaced, Screen (Acid 14) | fraction fluorescent probe displaced, Replicate (Acid 14) | fraction fluorescent probe displaced, Screen (Acid 25) | fraction fluorescent probe displaced, Replicate (Acid 25) | fraction fluorescent probe displaced, Screen (Acid 91) | fraction fluorescent probe displaced, Replicate (Acid 91)
1 | O=C1CCNC(=O)C(Cc2c[nH]c3ccccc23)NC(=O)C2CN(C(=O)c3ccc(Cl)s3)CCN2C(=O)CCSSCCN1 (stereo not shown) [X D7 W B2 Acid 14] | 0.11 | 0.10 | – | – | – | –
2 | O=C1CCNC(=O)C(Cc2c[nH]c3ccccc23)NC(=O)C2CN(C(=O)c3ccc(Cl)cc3)CCN2C(=O)CCSSCCN1 (stereo not shown) [X D7 W B2 Acid 25] | – | – | 0.22 | 0.17 | – | –
3 | O=C1NCCSSCCC(=O)N2CCN(C(=O)C=Cc3ccccc3)CC2C(=O)NC(Cc2c[nH]c3ccccc23)C(=O)N2CCCC1C2 (stereo not shown) [X D7 W B4 Acid 91] | – | – | – | – | 0.03 | 0.04
4 | O=C1CCSSCCNC(=O)C(CNC(=O)c2ccc(Cl)s2)NC(=O)C2CCCN2C(=O)C(Cc2ccccc2)N1 (stereo not shown) [X F B1 D3 Acid 14] ([Mpa]FP[Dap](2Thenoyl(5-Cl))-Cysteamide; disulfide 1-C; configuration not given here) | 0.17 | 0.07 | – | – | – | –
5 | O=C1CCSSCCNC(=O)C(CNC(=O)c2ccc(Cl)cc2)NC(=O)C2CCCN2C(=O)C(Cc2ccccc2)N1 (stereo not shown) [X F B1 D3 Acid 25] ([Mpa]FP[Dap](Benzoyl(4-Cl))-Cysteamide; disulfide 1-C; configuration not given here) | – | – | 0.12 | 0.22 | – | –
6 | O=C(/C=C/c1ccccc1)NC[C@@H]1NC(=O)[C@@H]2CCCN2C(=O)[C@H](Cc2ccccc2)NC(=O)CCSSCCNC1=O [X F B1 D3 Acid 91] ([Mpa]FP[Dap](X1)-Cysteamide; disulfide 1-C) | – | – | – | – | 0.08 | 0.04
7 | O=C1CCSSCCNC(=O)C2(CCN(C(=O)c3ccc(Cl)cc3)CC2)NC(=O)[C@@H]2CCCN2C(=O)[C@H](Cc2ccccc2)N1 [X F B1 D6 Acid 25] ([Mpa]FP[Api](Benzoyl(4-Cl))-Cysteamide; disulfide 1-C) | – | – | 0.22 | 0.10 | – | –
8 | O=C1CCSSCCNC(=O)C2(CCN(C(=O)/C=C/c3ccccc3)CC2)NC(=O)[C@@H]2CCCN2C(=O)[C@H](Cc2ccccc2)N1 [X F B1 D6 Acid 91] ([Mpa]FP[Api](X1)-Cysteamide; disulfide 1-C) | – | – | – | – | -0.05 | 0.0168
9 | O=C1CCNC(=O)[C@H](Cc2ccccc2)NC(=O)CCSSCCNC(=O)[C@H](CNC(=O)c2ccc(Cl)s2)N1 [X F B2 D3 Acid 14] | 0.14 | 0.12 | – | – | – | –
10 | O=C1CCNC(=O)C(Cc2ccccc2)NC(=O)CCSSCCNC(=O)C(CNC(=O)c2ccc(Cl)cc2)N1 (stereo not shown) [X F B2 D3 Acid 25] | – | – | 0.22 | 0.17 | – | –
11 | O=C(/C=C/c1ccccc1)NC[C@@H]1NC(=O)CCNC(=O)[C@H](Cc2ccccc2)NC(=O)CCSSCCNC1=O [X F B2 D3 Acid 91] | – | – | – | – | 0.03 | 0.04
12 | O=C1CCSSCCNC(=O)[C@@H]2C[C@H](NC(=O)c3ccc(Cl)s3)CN2C(=O)CCNC(=O)[C@H](Cc2ccccc2)N1 [X F B2 D5 Acid 14] | 0.08 | 0.07 | – | – | – | –
13 | O=C1CCSSCCNC(=O)C2CC(NC(=O)c3ccc(Cl)cc3)CN2C(=O)CCNC(=O)C(Cc2ccccc2)N1 (stereo not shown) [X F B2 D5 Acid 25] | – | – | 0.12 | 0.07 | – | –
14 | O=C1CCSSCCNC(=O)C2(CCN(C(=O)c3ccc(Cl)s3)CC2)NC(=O)CCNC(=O)C(Cc2ccccc2)N1 (stereo not shown) [X F B2 D6 Acid 14] | 0.20 | 0.0465 | – | – | – | –
15 | O=C1CCSSCCNC(=O)C2(CCN(C(=O)c3ccc(Cl)cc3)CC2)NC(=O)CCNC(=O)[C@H](Cc2ccccc2)N1 [X F B2 D6 Acid 25] | – | – | -0.00813 | -0.03 | – | –
16 | O=C1CCSSCCNC(=O)C2(CCN(C(=O)C=Cc3ccccc3)CC2)NC(=O)CCNC(=O)C(Cc2ccccc2)N1 (stereo not shown) [X F B2 D6 Acid 91] | – | – | – | – | 0.0563 | -0.00827
17 | O=C1CCSSCCNC(=O)C2CN(C(=O)c3ccc(Cl)s3)CCN2C(=O)CCNC(=O)C(Cc2ccccc2)N1 (stereo not shown) [X F B2 D7 Acid 14] | 0.17 | 0.10 | – | – | – | –
18 | O=C1CCSSCCNC(=O)C2CN(C(=O)c3ccc(Cl)cc3)CCN2C(=O)CCNC(=O)[C@H](Cc2ccccc2)N1 (stereo partly shown) [X F B2 D7 Acid 25] | – | – | 0.12 | 0.10 | – | –

Now from value to compound:

Row | fraction fluorescent probe displaced, Screen (Acid 14) | fraction fluorescent probe displaced, Replicate (Acid 14) | fraction fluorescent probe displaced, Screen (Acid 25) | fraction fluorescent probe displaced, Replicate (Acid 25) | fraction fluorescent probe displaced, Screen (Acid 91) | fraction fluorescent probe displaced, Replicate (Acid 91) | Structure (SMILES)
19 | – | – | – | – | 0.03 | 0.04 | O=C1CCSSCCNC(=O)C2CN(C(=O)C=Cc3ccccc3)CCN2C(=O)CCNC(=O)C(Cc2ccccc2)N1 (stereo not shown) [X F B2 D7 Acid 91]
20 | 0.23 | 0.17 | – | – | – | – | O=C1CCSSCCNC(=O)[C@H](CNC(=O)c2ccc(Cl)s2)NC(=O)[C@H]2CCCN(C2)C(=O)[C@H](Cc2ccccc2)N1 [X F B4 D3 Acid 14]
21 | – | – | 0.12 | 0.22 | – | – | O=C1CCSSCCNC(=O)C(CNC(=O)c2ccc(Cl)cc2)NC(=O)C2CCCN(C2)C(=O)C(Cc2ccccc2)N1 (stereo not shown) [X F B4 D3 Acid 25]
22 | – | – | – | – | 0.19 | 0.17 | O=C(/C=C/c1ccccc1)NC[C@@H]1NC(=O)[C@H]2CCCN(C2)C(=O)[C@H](Cc2ccccc2)NC(=O)CCSSCCNC1=O [X F B4 D3 Acid 91]
23 | 0.08 | 0.0465 | – | – | – | – | O=C1CCSSCCNC(=O)C2CC(NC(=O)c3ccc(Cl)s3)CN2C(=O)C2CCCN(C2)C(=O)C(Cc2ccccc2)N1 (stereo not shown) [X F B4 D5 Acid 14]
24 | 0.08 | 0.20 | – | – | – | – | O=C1CCSSCCNC(=O)C2(CCN(C(=O)c3ccc(Cl)s3)CC2)NC(=O)[C@H]2CCCN(C2)C(=O)[C@H](Cc2ccccc2)N1 [X F B4 D6 Acid 14]
25 | – | – | 0.15 | 0.07 | – | – | O=C1CCSSCCNC(=O)C2(CCN(C(=O)c3ccc(Cl)cc3)CC2)NC(=O)C2CCCN(C2)C(=O)C(Cc2ccccc2)N1 (stereo not shown) [X F B4 D6 Acid 25]
26 | – | – | – | – | 0.0563 | -0.00827 | O=C1CCSSCCNC(=O)C2(CCN(C(=O)/C=C/c3ccccc3)CC2)NC(=O)[C@H]2CCCN(C2)C(=O)[C@H](Cc2ccccc2)N1 [X F B4 D6 Acid 91]
27 | – | – | – | – | 0.0563 | 0.0168 | O=C1CCSSCCNC(=O)C2CN(C(=O)C=Cc3ccccc3)CCN2C(=O)C2CCCN(C2)C(=O)C(Cc2ccccc2)N1 (stereo not shown) [X F B4 D7 Acid 91]
28 | 0.08 | -0.00432 | – | – | – | – | O=C1CCSSCCNC(=O)C(CNC(=O)c2ccc(Cl)s2)NC(=O)c2cccc(c2)CNC(=O)C(Cc2ccccc2)N1 (stereo not shown) [X F B5 D3 Acid 14]
29 | – | – | – | – | -0.05 | 0.04 | O=C(/C=C/c1ccccc1)NC[C@@H]1NC(=O)c2cccc(c2)CNC(=O)[C@H](Cc2ccccc2)NC(=O)CCSSCCNC1=O [X F B5 D3 Acid 91]
